Activity calls are given as the source filed them. No cut-off for these calls is given here.
Legend:
[1] = target: Cyclin-dependent kinase 7 (Homo sapiens) (UniProt P50613); experiment: Inhibition of CDK7 (unknown origin) at 5 uM by DiscoverX KinomeScan ScanMAX analysis
[2] = Toxicity against male Sprague-Dawley rat assessed as effect on creatinine level in blood at 10 to 40 mg/kg, po administered once daily via gavage for 28 days and measured on day 29; format: organism-based; conditions: in vivo, 696 h, dose 10-40 mg/kg, time 29 day
[3] = Toxicity against male Sprague-Dawley rat assessed as effect on red blood cells level at 10 to 40 mg/kg, po administered once daily via gavage for 28 days and measured on day 29; format: organism-based; conditions: in vivo, 696 h, dose 10-40 mg/kg, time 29 day
[4] = Half life in male Sprague-Dawley rat at 10 mg/kg, po administered once daily via gavage for 28 days; format: ADME, organism-based; conditions: in vivo, time 28 day
[5] = Cmax in female Sprague-Dawley rat at 30 mg/kg, po administered once daily via gavage for 28 days; format: ADME, organism-based; conditions: in vivo, time 28 day
[6] = Toxicity against male Sprague-Dawley rat assessed as effect on glucose level in blood at 10 to 40 mg/kg, po administered once daily via gavage for 28 days and measured on day 29; format: organism-based; conditions: in vivo, 696 h, dose 10-40 mg/kg, time 29 day
HCC1395 = experiment: Antiproliferative activity against human HCC1395 cells assessed as reduction in cell viability incubated for 7 days by CellTiter-Glo reagent based luminescence analysis; format: functional; conditions: HCC1395, 168 h
HEP Sf9 = experiment: Inhibition of human recombinant N-terminal GST-tagged CDK4/C-terminal 6XHis-tagged Cyclin D3 S259A mutant expressed in HEP Sf9 cells using ATP as substrate at 2 uM measured after 60 mins by ADP-Glo reagent based luminescence assay
[7] = Toxicity against male Sprague-Dawley rat assessed as effect on sodium level in blood at 10 to 40 mg/kg, po administered once daily via gavage for 28 days and measured on day 29; format: organism-based; conditions: in vivo, 696 h, dose 10-40 mg/kg, time 29 day
[8] = Toxicity against male Sprague-Dawley rat assessed as hypersalivation at 40 mg/kg, po administered once daily via gavage for 28 days; format: organism-based; conditions: in vivo, 672 h, time 28 day
[9] = Toxicity against male Sprague-Dawley rat assessed as soft feces at 40 mg/kg, po administered once daily via gavage for 28 days; format: organism-based; conditions: in vivo, 672 h, time 28 day
Mus musculus [10] = experiment: In vivo inhibition of CDK12/13 in Balb/c mouse xenografted with human SUM149PT cells assessed as reduction in FANCI gene expression at 15 to 30 mg/kg, po administered once daily via gavage and measured at 4 hrs post-last drug dosage by qPCR analysis; format: functional, organism-based; conditions: dose 15-30 mg/kg
[11] = Toxicity against Sprague-Dawley rat assessed as abnormalities at 5 to 15 mg/kg, po measured for 24 hrs; format: organism-based; conditions: in vivo, dose 5-15 mg/kg
SW1417 = experiment: Antiproliferative activity against human SW1417 cells assessed as reduction in cell viability incubated for 7 days by CellTiter-Glo reagent based luminescence analysis; format: functional; conditions: SW1417, 168 h
[12] = Toxicity against female Sprague-Dawley rat assessed as decrease in thymus volume at 7.5 to 30 mg/kg, po administered once daily via gavage for 28 days and measured on day 29; format: organism-based; conditions: in vivo, 696 h, dose 7.5-30 mg/kg, time 29 day
[13] = Toxicity against male Sprague-Dawley rat assessed as effect on mean corpuscular volume at 10 to 40 mg/kg, po administered once daily via gavage for 28 days and measured on day 29; format: organism-based; conditions: in vivo, 696 h, dose 10-40 mg/kg, time 29 day
[14] = Volume of distribution at steady state in CD-1 mouse at 1 mg/kg, iv measured for 24 hrs by LC-MS/MS analysis; format: ADME, organism-based; conditions: in vivo, read-out: Vdss
[15] = Half life in male Sprague-Dawley rat at 20 mg/kg, po administered once daily via gavage for 28 days; format: ADME, organism-based; conditions: in vivo, time 28 day
[16] = Toxicity against female Sprague-Dawley rat assessed as effect on mean corpuscular volume at 7.5 to 30 mg/kg, po administered once daily via gavage for 28 days and measured on day 29; format: organism-based; conditions: in vivo, 696 h, dose 7.5-30 mg/kg, time 29 day
[17] = Half life in male Sprague-Dawley rat at 40 mg/kg, po administered via gavage and measured on day 1; format: ADME, organism-based; conditions: in vivo, time 1 day
[18] = Cmax in Balb/c mouse xenografted with human SUM149PT cells at 60 mg/kg, po administered once daily via gavage; format: ADME, organism-based; conditions: in vivo
[19] = Toxicity against male Sprague-Dawley rat assessed as decrease in lymphocytes content at 10 to 40 mg/kg, po administered once daily via gavage for 28 days and measured on day 29; format: organism-based; conditions: in vivo, 696 h, dose 10-40 mg/kg, time 29 day
Cytochrome P450 1A2 = Cytochrome P450 1A2 (Homo sapiens, UniProt P05177); experiment: Inhibition of CYP1A2 in human liver microsomes assessed as inhibition of phenacetin-O-deethylation incubated for 10 mins in presence of NADPH by LC-MS/MS analysis; format: ADME, Microsome
[20] = Protein binding in mouse plasma assessed as free fraction at 400 uM incubated for 4 hrs by equilibrium dialysis method based LC-MS/MS analysis; format: ADME, cell-free
[21] = Cmax in Sprague-Dawley rat at 1 mg/kg, iv measured for 24 hrs by LC-MS/MS analysis; format: ADME, organism-based; conditions: in vivo
Cytochrome P450 2D6 = Cytochrome P450 2D6 (Homo sapiens, UniProt P10635); experiment: Inhibition of CYP2D6 in human liver microsomes assessed as inhibition of dextromethorphan-O-demethylation incubated for 10 mins in presence of NADPH by LC-MS/MS analysis; format: ADME, Microsome
[22] = target: Cyclin-dependent kinase 12/13 (Homo sapiens) (UniProt Q14004+Q9NYV4); experiment: Inhibition of CDK12/13 in human SUM149PT cells assessed as reduction in FANCI gene expression at 500 nM incubated for 8 to 24 hrs by qPCR analysis; format: cell-based; conditions: time lower 8.0 hrs, time upper […]
DLD-1 = experiment: Antiproliferative activity against human DLD-1 cells assessed as reduction in cell viability incubated for 7 days by CellTiter-Glo reagent based luminescence analysis; format: functional; conditions: DLD-1, 168 h
Mus musculus [23] = experiment: In vivo inhibition of CDK12/13 in Balb/c mouse xenografted with human SUM149PT cells assessed as reduction in phosphorylation of Ser2 on RNA Pol II at 15 to 30 mg/kg, po administered once daily via gavage and measured at 4 hrs post-last drug dosage by western blot analysis; format: functional, organism-based; conditions: dose 15-30 mg/kg
[24] = Toxicity against male Sprague-Dawley rat assessed as increase in neutrophils content at 10 to 40 mg/kg, po administered once daily via gavage for 28 days and measured on day 29; format: organism-based; conditions: in vivo, 696 h, dose 10-40 mg/kg, time 29 day
Cytochrome P450 2C19 = Cytochrome P450 2C19 (Homo sapiens, UniProt P33261); experiment: Inhibition of CYP2C19 in human liver microsomes assessed as inhibition of S-mephenytoin-4-hydroxylation incubated for 10 mins in presence of NADPH by LC-MS/MS analysis; format: ADME, Microsome
[25] = Toxicity against female Sprague-Dawley rat assessed as effect on phosphorus level in blood at 7.5 to 30 mg/kg, po administered once daily via gavage for 28 days and measured on day 29; format: organism-based; conditions: in vivo, 696 h, dose 7.5-30 mg/kg, time 29 day
[26] = AUC (0 to infinity) in Sprague-Dawley rat at 150 mg/kg, po by LC-MS/MS analysis; format: ADME, organism-based; conditions: in vivo
[27] = Cmax in Sprague-Dawley rat at 5 mg/kg, po measured for 24 hrs by LC-MS/MS analysis; format: ADME, organism-based; conditions: in vivo

Cyclin-dependent kinase 7 (Homo sapiens), sequence (P50613 whole entry): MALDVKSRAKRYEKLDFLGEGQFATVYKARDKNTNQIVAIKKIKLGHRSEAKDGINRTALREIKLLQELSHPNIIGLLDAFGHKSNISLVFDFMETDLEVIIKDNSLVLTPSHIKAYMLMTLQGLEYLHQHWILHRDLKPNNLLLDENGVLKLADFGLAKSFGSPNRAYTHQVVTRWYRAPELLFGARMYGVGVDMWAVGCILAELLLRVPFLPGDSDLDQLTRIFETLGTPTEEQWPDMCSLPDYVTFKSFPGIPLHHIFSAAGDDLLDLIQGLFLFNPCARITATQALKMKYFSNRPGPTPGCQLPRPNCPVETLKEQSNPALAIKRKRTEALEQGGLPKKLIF
Cytochrome P450 2C19, sequence (P33261 whole entry): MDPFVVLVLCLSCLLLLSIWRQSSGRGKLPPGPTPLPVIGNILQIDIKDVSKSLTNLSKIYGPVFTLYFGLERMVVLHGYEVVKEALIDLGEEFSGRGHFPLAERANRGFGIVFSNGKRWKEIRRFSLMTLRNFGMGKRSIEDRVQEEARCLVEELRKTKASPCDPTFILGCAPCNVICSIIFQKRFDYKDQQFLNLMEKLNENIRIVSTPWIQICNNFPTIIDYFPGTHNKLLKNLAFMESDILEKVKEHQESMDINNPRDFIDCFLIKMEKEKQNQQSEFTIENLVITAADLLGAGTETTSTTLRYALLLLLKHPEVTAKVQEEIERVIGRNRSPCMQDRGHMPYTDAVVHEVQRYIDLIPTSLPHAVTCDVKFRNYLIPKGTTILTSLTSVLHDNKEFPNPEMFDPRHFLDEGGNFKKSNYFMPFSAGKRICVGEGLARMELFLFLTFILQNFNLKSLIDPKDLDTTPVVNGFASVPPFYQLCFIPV
Cytochrome P450 1A2, sequence (P05177 whole entry): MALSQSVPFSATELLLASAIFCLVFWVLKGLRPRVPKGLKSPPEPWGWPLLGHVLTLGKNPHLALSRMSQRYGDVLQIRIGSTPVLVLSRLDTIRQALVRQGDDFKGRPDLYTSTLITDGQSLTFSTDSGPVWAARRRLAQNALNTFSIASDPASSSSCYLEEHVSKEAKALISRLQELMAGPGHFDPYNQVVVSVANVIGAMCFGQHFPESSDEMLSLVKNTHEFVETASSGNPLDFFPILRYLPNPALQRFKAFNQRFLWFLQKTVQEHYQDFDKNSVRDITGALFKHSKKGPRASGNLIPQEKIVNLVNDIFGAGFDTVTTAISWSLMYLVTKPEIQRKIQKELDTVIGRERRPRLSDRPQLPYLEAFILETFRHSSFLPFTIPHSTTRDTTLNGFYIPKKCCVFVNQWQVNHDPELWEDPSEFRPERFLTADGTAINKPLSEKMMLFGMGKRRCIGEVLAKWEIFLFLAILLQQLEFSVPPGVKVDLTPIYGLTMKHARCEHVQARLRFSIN
Cytochrome P450 2D6, sequence (P10635 whole entry): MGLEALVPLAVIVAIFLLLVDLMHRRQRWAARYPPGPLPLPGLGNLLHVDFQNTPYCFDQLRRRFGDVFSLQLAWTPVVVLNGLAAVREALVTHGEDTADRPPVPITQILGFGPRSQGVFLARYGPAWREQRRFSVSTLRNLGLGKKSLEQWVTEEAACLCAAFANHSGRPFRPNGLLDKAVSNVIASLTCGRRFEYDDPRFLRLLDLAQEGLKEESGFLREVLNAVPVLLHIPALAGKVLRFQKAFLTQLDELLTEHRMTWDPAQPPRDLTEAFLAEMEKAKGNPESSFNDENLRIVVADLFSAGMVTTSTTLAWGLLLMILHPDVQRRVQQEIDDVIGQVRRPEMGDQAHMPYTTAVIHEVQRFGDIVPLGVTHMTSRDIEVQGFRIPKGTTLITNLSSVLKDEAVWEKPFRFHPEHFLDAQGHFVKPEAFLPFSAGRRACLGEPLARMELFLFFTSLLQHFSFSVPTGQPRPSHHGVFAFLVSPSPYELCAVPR

Compound: C=CC(=O)N1CCc2c(ncnc2N2CC[C@@H](Nc3ncc(Cl)c(OC)n3)C2)C1
- inhibition [1]: Active
- Activity [2]: Non-toxic
- Activity [3]: Non-toxic
- half-life [4]: 3.5 h
- Cmax [5]: 1690 ng/mL
- Activity [6]: Non-toxic
- IC50 (HCC1395): 69 nM
- inhibition (HEP Sf9): 68%
- Activity [7]: Non-toxic
- Activity [8]: Toxic
- Activity [9]: Toxic
- inhibition (Mus musculus [10]): Active
- Activity [11]: Non-toxic
- IC50 (SW1417): 137 nM
- Activity [12]: Toxic
- Activity [13]: Non-toxic
- Vd [14]: 0.87 L/kg
- half-life [15]: 4.2 h
- Activity [16]: Non-toxic
- half-life [17]: 6.2 h
- Cmax [18]: 3300 ng/mL
- Activity [19]: Toxic
- IC50 (Cytochrome P450 1A2): > 50000 nM
- fraction unbound at 4 h, 400 µM [20]: 0.075
- Cmax [21]: 830 ng/mL
- IC50 (Cytochrome P450 2D6): > 50000 nM
- inhibition [22]: Active
- IC50 (DLD-1): 135 nM
- inhibition (Mus musculus [23]): Active
- Activity [24]: Toxic
- IC50 (Cytochrome P450 2C19): > 50000 nM
- Activity [25]: Non-toxic
- AUC(0-inf) [26]: 31200 ng·h/mL
- Cmax [27]: 808 ng/mL

— ChEMBL document CHEMBL6153137, “Design, Synthesis, and Biological Evaluation of Novel Orally Available Covalent CDK12/13 Dual Inhibitors for the Treatment of Tumors” (J Med Chem, 2025)
